How the values were obtained:
Candida albicans [1] = assay: Antimicrobial activity against Candida albicans at 100 ug after 24 hr by disk diffusion method; type: functional; details: read-out: DIZ
Corynebacterium accolens [2] = assay: Antimicrobial activity against Corynebacterium accolens at 100 ug after 24 hr by disk diffusion method; type: functional; details: read-out: DIZ
Staphylococcus aureus [3] = assay: Antimicrobial activity against Staphylococcus aureus at 100 ug after 24 hr by disk diffusion method; type: functional; details: read-out: DIZ
[4] = Inhibition of xanthine oxidase assessed as conversion of xanthine to uric acid incubated for 3 min
[5] = tested on: Pectobacterium carotovorum; assay: Antimicrobial activity against Pectobacterium carotovorum at 100 ug after 24 hr by disk diffusion method; type: functional; details: read-out: DIZ
[6] = tested on: Pectobacterium carotovorum; assay: Antimicrobial activity against Pectobacterium carotovorum at 10 ug after 24 hr by disk diffusion method; type: functional, organism-based
Corynebacterium accolens [7] = assay: Antimicrobial activity against Corynebacterium accolens at 10 ug after 24 hr by disk diffusion method; type: functional, organism-based
Staphylococcus aureus [8] = assay: Antimicrobial activity against Staphylococcus aureus at 10 ug after 24 hr by disk diffusion method; type: functional, organism-based
Candida albicans [9] = assay: Antimicrobial activity against Candida albicans at 20 ug after 24 hr by disk diffusion method; type: functional, organism-based

| Molecule | zone of inhibition at 100 µg/disc (Candida albicans [1]) [mm] | zone of inhibition at 100 µg/disc (Corynebacterium accolens [2]) [mm] | zone of inhibition at 100 µg/disc (Staphylococcus aureus [3]) [mm] | IC50 [4] [µM] | zone of inhibition at 100 µg/disc [5] [mm] | inhibition zone (IZ) [6] [mm] | inhibition zone (IZ) (Corynebacterium accolens [7]) [mm] | inhibition zone (IZ) (Staphylococcus aureus [8]) [mm] | inhibition zone (IZ) (Candida albicans [9]) [mm] |
| --- | --- | --- | --- | --- | --- | --- | --- | --- | --- |
| O=C(O)C[C@@H]1C(=O)O[C@H]2[C@@H]3OC(=O)c4cc(O)c(O)c(O)c4-c4c(cc(O)c(O)c4O)C(=O)OC[C@H]2O[C@@H](OC(=O)c2cc(O)c(O)c(O)c2)[C@@H]3OC(=O)c2cc(O)c(O)c3c2[C@H]1[C@H](O)C(=O)O3 [CHEBULAGIC ACID] | 12 | 10 | 11 | 48 | 19 | – | – | – | – |
| O=C(O[C@@H]1O[C@@H]2COC(=O)c3cc(O)c(O)c(O)c3-c3c(cc(O)c(O)c3O)C(=O)O[C@H]([C@H]1O)[C@@H]2O)c1cc(O)c(O)c(O)c1 [CORILAGIN] | 12 | 12 | 12 | > 100 | 20 | – | – | – | – |
| O=c1oc2c(O)c(O[C@@H]3OC[C@@H](O)[C@H](O)[C@H]3O)cc3c(=O)oc4c(O)c(O)cc1c4c23 [ELLAGIC ACID 4-O-XYLOPYRANOSIDE] | 0 | 0 | 0 | 4.7 | 12 | – | – | – | – |
| O=c1oc2c(O)c(O)cc3c(=O)oc4c(O)c(O)cc1c4c23 [ELLAGIC ACID] | 10 | 12 | 0 | 9.3 | 15 | – | – | – | – |
| O=C(O)c1cc(O)c(O)c(O)c1 [GALLIC ACID] | 7 | 7 | 7 | 41.7 | 13 | – | – | – | – |
| O=C(Oc1c(O)cc2c(c1O)-c1c(cc(O)c(O)c1O)C(=O)OC[C@H]1O[C@@H](OC(=O)c3cc(O)c(O)c(O)c3)[C@H](O)[C@@H](OC2=O)[C@@H]1O)c1cc(O)c(O)c(O)c1 [MALLOREPANIN] | 10 | 10 | 10 | > 100 | 15 | – | – | – | – |
| O=C(O[C@@H]1O[C@@H]2COC(=O)c3cc(O)c(O)c(O)c3-c3c(cc(Oc4c(C(=O)O)cc(O)c(O)c4O)c(O)c3O)C(=O)O[C@H]([C@H]1O)[C@@H]2O)c1cc(O)c(O)c(O)c1 [MALLOTINIC ACID] | 9 | 9 | 9 | > 100 | 13 | – | – | – | – |
| O=c1c(O)c(-c2ccc(O)c(O)c2)oc2cc(O)cc(O)c12 [QUERCETIN] | – | – | – | 10 | – | – | – | – | – |
| GENTAMICIN SULFATE | – | – | – | – | – | 21 | 28 | 14 | – |
| NYSTATIN | – | – | – | – | – | – | – | – | 11 |

Reference: ChEMBL document CHEMBL3046377, “Bioactive ellagitannins from Cunonia macrophylla, an endemic Cunoniaceae from New Caledonia” (Phytochemistry, 2005)
